The test system of data set [1] is C. albicans. The experiment in a line: Minimum Inhibitory Concentrations (MICs) against C. albicans, NCCLS M27-A broth dilution. The data set is classed as cell-based. The protocol: For each compound synthesized, Minimum Inhibitory Concentrations (MICs) against C. albicans were determined as described in Reference Method for Broth Dilution Antifungal Susceptibility Testing of Yeasts, Approved Standard, NCCLS document M27-A (ISBN 1-56238-328-0), NCCLS, 940 West Valley Road, Suite 1400, Wayne, Pa. 19087, 1997.
(In general: Broth dilution looks for growth in wells or tubes with falling amounts of substance.)

The nature of data set [2]: Maximum non-lethal dose (NLD), single intravenous dose in mice. In kind it is in vivo, Swiss-Webster male mice. The note with it: test compounds as aspartate salts in 5% mannitol, AmB as FUNGIZONE
Here is the method: (§1) A variety of the compounds synthesized as described in Section 5, supra, were tested in various in vivo assays, as described below. The results of the various assays are provided in TABLE 3, presented at the end of this section. In all of the in vivo assays described, the test compounds, in the form of the aspartate salts, were formulated in an aqueous vehicle (5% mannitol in sterile water; OSMITROL, Baxter Healthcare, Deerfield, Ill.), followed by appropriate dilutions. The formulations were prepared fresh before dosing.
(§2) AmB and AME were also tested for comparison. For AmB, the commercially available FUNGIZONE (Bristol-Meyers Squibb Co.) was used. Reported values are based upon the weight of the AmB active ingredient, not on the basis of the weight of the FUNGIZONE powder. AME was formulated in OSMITROL as described for the test compounds.
Maximum non-lethal dose (NLD) data were obtained for selected compounds. A single intravenous dose was administered to each of four mice (Swiss-Webster male mice; Simonsen Laboratories, Gilroy, Calif.) in several groups. The doses selected were based upon the NLDs of compounds of similar structures. After review of findings, higher or lower doses were administered and a NLD was determined. The results are tabulated in TABLE 3, below (NLD Acute Mice). The values for AmB and AME are provided for comparison

For data set [3], the system named is C. albicans. The data set can be described thus: 5 day kidney bioburden evaluation in immunocompetent mice challenged with C. albicans. The note with it: intraperitoneally once daily for 5 days, immunocompetent mice, C. albicans, 50% of animals with 2 log10 reduction in kidney CFU; for ED50: Candida albicans, ip, 120 h, read-out: ED50 mice 5 day. The data set is classed as in vivo, Swiss-Webster mice. The protocol:
as §1, §2
Various polyene macrolide amide derivatives of the invention were evaluated for their protective effect when administered intraperitoneally once daily for 5 days to immunocompetent mice challenged with live C. albicans.
C. albicans was grown on Sabouraud dextrose agar (SDA) plates for 48 hr. Colonies were harvested and washed twice by centrifugation in phosphate-buffered saline (PBS). The washed pellets were resuspended in PBS and diluted to achieve the desired number of fungi per milliliter. A portion of the inoculum was plated on SDA plates to determine the colony-forming units (CFU) per milliliter.
Swiss-Webster mice (Simonsen Laboratories, Gilroy, Calif.) were administered by intravenous injection a single inoculum (0.2 mL) containing as estimated 2.0×10^5 CFU of C. albicans. The day of inoculation was designated as study day 0. Beginning three days after injection, mice were treated intraperitoneally with vehicle alone or formulated test compound once daily for 5 consecutive days.
(§3) The mice were observed daily from study day 0 through study day 10 (3 days after the last dose). Mice found dead or euthanized in extremis were removed from the study without further processing. Surviving mice were euthanized by inhalation of CO2 on study day 10 and both kidneys from each mouse were removed. Each pair of removed kidneys was homogenized in 3 mL of ice-cold PBS containing 10% glycerol. A portion of each homogenate was used to determine log10 CFU per kidney using SDA plates (48 hours of incubation at 30° C.). Kidney log10 CFU data were analyzed using a t-test. The criterion for a statistically significant response was set at p<0.01.
(§4) For comparison, the results for AmB and AME are also provided. Efficacy was defined for individual animals as a greater than 2 log10 reduction in kidney CFU relative to the mean vehicle control value.

The test system of data set [4] is C. albicans. The experiment in a line: 7 day kidney bioburden evaluation in neutropenic mice challenged with C. albicans. In kind it is in vivo, Swiss-Webster mice. The conditions noted are these: intraperitoneally once daily for 7 days, 50% of animals with 2 log10 reduction in kidney CFU; for ED50: Candida albicans, ip, 168 h. The protocol: as §1, §2
Various polyene macrolide amide derivatives of the invention were evaluated for their protective effect when administered intraperitoneally once daily for 7 days to neutropenic mice challenged with live C. albicans.
Swiss-Webster mice (Simonsen Laboratories, Gilroy, Calif.) were made neutropenic by intravenous administration of 5-fluorouracil (150 mg/kg) on study day −1. On study day 0, all mice received by intravenous injection a single inoculum (0.2 mL) containing as estimated 5.0×10^4 CFU of C. albicans. The day of inoculation was designated as study day 0. Beginning the day after infection (on study day 1), mice were treated intraperitoneally with vehicle alone or formulated test compound, once daily for 7 consecutive days.
as §3, with “day 1” for “day 0”, “day 8 (1 day” for “day 10 (3 days”, “day 8” for “day 10”
as §4

Data set [5] can be described thus: Two week range-finding toxicity study in mice. The data set is classed as in vivo, CD-1 mice. The note with it: for NOAEL at 2 week: both sexes, CD-1, mouse, in vivo, iv. Here is the method: as §1, §2
Various polyene macrolide amide derivatives of the invention were evaluated to characterize their potential toxicity when administered subchronically by intravenous injection.
CD-1® mice (Charles River Laboratories, Portage, Mich.) were acclimated to laboratory conditions for at least 5 days before the start of dosing. During the acclimation period, the general condition of the mice was evaluated, and those considered healthy were used. The mice were randomly assigned to treatment groups using a stratified body weight regimen. Each treatment group consisted of 3 male and 3 female mice. The mice were housed in a room with a controlled environment and provided rodent chow and water ad libitum.
On the first day of dosing, the mice were approximately 7 to 9 weeks old and weighed 22 to 30 g. Doses were administered by intravenous injection once daily on study days 1 to 5 and 8 to 12. Dosages were selected based upon data from efficacy and toxicology studies, and ranged from 1.25 to 30 mg/kg/day. Clinical observations were recorded 0.5 hr after dosing on days 1, 3, 5, 8, 10, 12 and 15, and on any day a change was observed. Body weights were recorded prior to dosing and on study days 8 and 12, and on study day 15 at the completion of the in-life phase of the study.
Animals that were found in a moribund/deteriorating clinical state were euthanized (animal designated killed in extremis) by inhalation of CO2. The day of death for any animal found dead or killed in extremis was recorded. Any animal that died prematurely was removed from the study without further processing.
One day after completion of dosing (study day 16), all surviving mice were euthanized by inhalation of CO2. Their kidneys were preserved for histopathologic examination. The maximum no-observed-adverse-effect level (NOAEL) was determined on the basis of clinical and histopathologic findings. The values for AmB and AME are provided for comparison.

Data set [6] is described as follows: Ascending single-dose nephrotoxicity study in rabbits. The data set is classed as in vivo, Female New Zealand white rabbits. The note with it: ascending single intravenous infusion doses, urine volume, BUN, creatinine. Here is the method: as §1
AmB and AME were also tested for comparison. For AmB, the commercially available FUNGIZONE (Bristol-Meyers Squibb Co.) was used. […]
Various polyene macrolide amide derivatives of the invention were evaluated to determine the intravenous dose of administered compound that produces nephrotoxicity in rabbits. Nephrotoxicity was monitored by measuring urine volume and blood urine nitrogen (BUN) and creatinine. […]
Ascending single doses were administered by intravenous infusion into an ear vein at a rate of 0.6 mL/min. […] Body weights were recorded before each dose, as well as 2 days after the last dose. Blood samples were collected from the rabbits two days prior to the first dose (study day −2) and approximately 24 hr after each dose and analyzed for BUN and creatinine. […]

For data set [7] the following is noted: rats; cited from earlier work.
The conditions of data set [8]: dogs; cited from earlier work.
For data set [9] the following is noted: human, in vivo; cited from earlier work.
Setting [10] is: Candida albicans, read-out: MIC.

The values that follow come from US6664241B2, “Water-soluble amide derivatives of polyene macrolides and preparation and uses thereof” (Micrologix Biotech Inc., priority 2000, dated 2003).

One may read the MIC as the least concentration at which growth counts as inhibited. As usually defined, the ED50 is the dose that gives a 50% effect, or the effect in half of the subjects. The NOAEL is the highest dose or exposure tested at which no adverse effect was seen.

In brackets after ≈: the same amount, converted by molar mass. Like-named read-outs stand apart in the source and are kept apart here.

In the data set with C. albicans [1], `COC(=O)[C@H]1[C@@H]2C[C@@H](O[C@@H]3O[C@H](C)[C@@H](O)[C@H](N)[C@@H]3O)/C=C/C=C/C=C/C=C/C=C/C=C/C=C/[C@H](C)[C@@H](O)[C@@H](C)[C@H](C)OC(=O)C[C@H](O)C[C@H](O)CC[C@@H](O)[C@H](O)C[C@H](O)C[C@](O)(C[C@@H]1O)O2` [AME, amphotericin B methyl ester, reference compound] had a minimal inhibitory concentration (MIC) of 0.75 mg/L (≈ 0.799 µM). Moreover, in data set [2], the NLD acute mice is on record as 60 mg/kg. Moreover, in the data set on C. albicans [3], the “ED50 mice 5 day” value was 13.1 mg/kg. The “ED50 mice 7 day” value in the data set on C. albicans [4] was determined as 8.3 mg/kg. Further, the “NOAEL 2 week mice clinical” value in data set [5] (intravenous once daily on days 1 to 5 and 8 to 12, clinical findings) was more than 32 mg/kg. Moreover, the “NOAEL 2 week mice histological” value in data set [5] (intravenous once daily on days 1 to 5 and 8 to 12, histopathologic (kidney) findings) is given as more than 32 mg/kg. Besides, the NOAEL acute rabbit in data set [6] stood at 7.5 mg/kg. Besides, the “acute, nephro- and hepato-toxicity versus amphotericin B” value is “lower acute, nephro- and hepato-toxicity than amphotericin B” in data set [7]; “lower acute, nephro- and hepato-toxicity than amphotericin B” in data set [8]. Besides, the “adverse effects in clinical trial” value in data set [9] is recorded as “many patients developed progressive neurological dysfunction associated with white matter degeneration”.

For `CC1[C@H](C)OC(=O)C[C@H](O)C[C@H](O)CC[C@@H](O)[C@H](O)C[C@H](O)C[C@]2(O)C[C@H](O)C(C(=O)NCCCN3CCOCC3)C(C[C@@H](OC3O[C@H](C)[C@@H](O)[C@H](NC[C@@]4(O)OC[C@@H](O)[C@@H](O)[C@@H]4O)[C@@H]3O)/C=C/C=C/C=C/C=C/C=C/C=C/C=C/[C@H](C)[C@H]1O)O2` (stereo partly shown) [Compound 104], the MIC with C. albicans [1] (setting [10]) was determined as 2 mg/L (≈ 1.65 µM). In addition, in data set [2], the NLD acute mice came out at 20 mg/kg. Also, the values for the median effective dose (ED50) in the data set on C. albicans [3] and in the data set on C. albicans [4] were 9 mg/kg and 3.1 mg/kg, respectively. Further, the NOAEL at 2 week in data set [5] (NOAEL 2 week mice clinical) was 10 mg/kg; in [5] (NOAEL 2 week mice histological) it was less than 10 mg/kg.

Turning to `CC1[C@H](C)OC(=O)C[C@H](O)C[C@H](O)CC[C@@H](O)[C@H](O)C[C@H](O)C[C@]2(O)C[C@H](O)C(C(=O)NCCN3CCCCC3)C(C[C@@H](OC3O[C@H](C)[C@@H](O)[C@H](NC[C@@]4(O)OC[C@@H](O)[C@H](O)[C@@H]4O)[C@@H]3O)/C=C/C=C/C=C/C=C/C=C/C=C/C=C/[C@H](C)[C@H]1O)O2` (stereo partly shown) [Compound 114], in the data set with C. albicans [1] (setting [10]), the MIC worked out at 4 mg/L (≈ 3.34 µM). Besides, the NLD acute mice in data set [2] worked out at 40 mg/kg. Also, the results for the ED50 in the data set on C. albicans [3] and in the data set with C. albicans [4] were 9 mg/kg and 6.1 mg/kg, respectively. The NOAEL at 2 week in data set [5] (NOAEL 2 week mice clinical) and in [5] (NOAEL 2 week mice histological) was 9 mg/kg throughout.
